Patent US8236788B2, “Azolylmethyloxiranes, use thereof for controlling plant pathogenic fungi, and agents containing the same” (BASF SE, priority 2006, dated 2012)

Experiments:
Puccinia recondita = test: Protective activity against brown rust of wheat (Puccrt P1), greenhouse; assay type: in vivo, Puccinia recondita on wheat seedlings; conditions: 63 ppm active compound, protective spray 1 day before inoculation, assessed visually after further 7 days; untreated plants 90% infected
Description: (§1) The active compounds were prepared separately or jointly as a stock solution comprising 25 mg of active compound which was made up to 10 ml using a mixture of acetone and/or DMSO and the emulsifier Wettol EM 31 (wetting agent having emulsifying and dispersing action based on ethoxylated alkylphenols) in a volume ratio of solvent/emulsifier of 99:1. The mixture was then made up to 100 ml with water. This stock solution was diluted with the solvent/emulsifier/water mixture described to give the concentration of active compounds stated below.
Leaves of potted wheat seedlings were sprayed to run off point with an aqueous suspension having the active compound concentration stated below. The next day, the treated plants were inoculated with a spore suspension of brown rust of wheat (Puccinia recondita). The plants were then placed in a chamber with high atmospheric humidity (90 to 95%) at 20 to 22° C. for 24 hours. During this time, the spores germinated and the germ tubes penetrated into the leaf tissue. The next day, the test plants were returned to the greenhouse and cultivated at temperatures between 20 and 22° C. and 65 to 70% relative atmospheric humidity for a further 7 days. The extent of the rust fungus development on the leaves was then determined visually.

Sphaerotheca fuliginea = test: Activity against mildew on cucumber leaves, protective application (Sphrfu P1), greenhouse; assay type: in vivo, Sphaerotheca fuliginea on cucumber seedlings; conditions: 63 ppm active compound, protective spray 20 hours before inoculation, assessed visually after 7 days; untreated plants 90% infected
Description: as §1
At the cotyledon stage, leaves of potted cucumber seedlings were sprayed to run off point with an aqueous suspension having the active compound concentration below. 20 hours after the spray coating had dried on, the plants were inoculated with an aqueous spore suspension of mildew of cucumber (Sphaerotheca fuliginea). The plants were then cultivated in a greenhouse at temperatures between 20 and 24° C. and 60 to 80% relative atmospheric humidity for 7 days. The extent of the mildew development was then determined visually in % infection of the cotyledon area.

N#Cc1ccc(C2(Cn3cncn3)OC2c2ccccc2F)c(F)c1 (stereo not drawn) [Compound 69.3, 4-{anti-2-[(1H-1,2,4-triazol-1-yl)methyl]-3-[2-fluorophenyl]oxiran-2-yl}-3-fluorobenzonitrile]
infection (extent of rust fungus development on the leaves) (Puccinia recondita): 0% | infection of the cotyledon area (Sphaerotheca fuliginea): 1%
